Like-named read-outs stand apart in the source and are kept apart here.
How the values were obtained:
NB4 cells = assay: retinoid metabolism in NB4 cells; assay type: in vitro ADME
RARα [1] = target: T1, RARα (Homo sapiens, UniProt P10276); assay: cell-based
T1 sequence (P10276 1-462): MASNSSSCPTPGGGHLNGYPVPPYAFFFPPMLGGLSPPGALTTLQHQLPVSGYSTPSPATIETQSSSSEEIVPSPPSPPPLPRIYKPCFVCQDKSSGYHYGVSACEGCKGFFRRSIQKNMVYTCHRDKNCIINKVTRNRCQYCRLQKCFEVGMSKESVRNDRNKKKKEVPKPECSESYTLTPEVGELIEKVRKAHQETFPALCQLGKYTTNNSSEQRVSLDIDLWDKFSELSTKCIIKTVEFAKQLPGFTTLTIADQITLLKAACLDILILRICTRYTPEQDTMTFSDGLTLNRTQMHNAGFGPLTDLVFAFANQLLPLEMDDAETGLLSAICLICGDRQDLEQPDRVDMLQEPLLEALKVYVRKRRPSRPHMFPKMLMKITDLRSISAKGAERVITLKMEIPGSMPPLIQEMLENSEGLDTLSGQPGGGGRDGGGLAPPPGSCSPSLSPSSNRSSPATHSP
Description: (§1) These assays were performed in CV-1 cells with the RAR or RXR gene and the chloramphenicol acetyltransferase (CAT) reporter gene containing TREpal with a thymidine kinase promoter [(TREpal)2 -tk-CAT]. Twenty-four hours after transfection, cells were treated with a single dose of retinoid and the cell extracts were assayed for b-galactosidase and CAT activity. The antagonistic effects of UAB30 retinoids on the transcription of RAR-α were also determined in CV-1 cells. The methods are nearly identical to those used to perform transcriptional assays. These studies utilized the CAT reporter gene [(TREpal)2 -tk-CAT]. […] After 24 hours, cells were harvested and the transcriptional effects were measured in relative CAT activity, after correction with β-galactosidase activity for transfection efficiency. […] Experiments were performed in triplicate and the data were averaged.
(§2) UAB30 isomers were evaluated in assays which measures their functional activity within cells to induce RARα-, RARβ-, and RARγ-mediated transcriptional activity. CV-1 cells were transiently transfected with DNA plasmid from the appropriate RAR subtype and (TREpal)2 -tk-CAT (9, 19).

[2] = cited from earlier work
JMML cells = assay: inhibition of JMML spontaneous CFU-GM colony formation; conditions: Homo sapiens
Description: Mononuclear cells were separated by density gradient centrifugation, washed, and frozen in aliquots. […] No growth factors or other exogenous stimuli were added to the cultures. UAB retinoids and retinoic acid isomers were dissolved in either 100% ethanol or DMSO. Appropriate dilutions were made, and controls using the respective ethanol or DMSO concentration were set up in parallel. Varying doses of retinoids were added only once, 24 hours after initiation of the soft agar assays, by pipetting the retinoid solution on top of the soft agar and allowing the solution to enter the agar and interact with the cells by diffusion. The cultures were incubated for 14 days at 37° C. in a humidified atmosphere with 5% CO2.

HL-60 cells = assay: retinoid induction of differentiation of HL-60 cells (NBT); assay type: cell-based; conditions: Homo sapiens, HL-60, 96 h; 4-day induction of differentiation; read-out: ED50 (nM) HL-60
Description: Human leukemia cell line HL-60 and NB4 were used for measuring the ability of retinoids to induce terminal differentiation. Both cell lines are predominantly promyelocytes and are induced by retinoic acid to mature to cells with many characteristics of mature granulocytes. The induction of this differentiation is the basis for assaying one of the biological activities of retinoic acid analogues. For the differentiation assay, HL-60 or NB4 cells were grown in nutrient medium with fetal bovine serum as detailed by Breitman (15).
The percentage of cells that gained this marker was measured microscopically. The percentage of positive cells was then plotted as a function of the retinoid concentration to determine ED50 and ED30 values used in the formation of isoboles.

RARγ [3] = target: T2, RARγ (Homo sapiens, UniProt P13631); assay: nuclear receptor radiolabeled competition binding, RARγ
T2 sequence (P13631 1-454): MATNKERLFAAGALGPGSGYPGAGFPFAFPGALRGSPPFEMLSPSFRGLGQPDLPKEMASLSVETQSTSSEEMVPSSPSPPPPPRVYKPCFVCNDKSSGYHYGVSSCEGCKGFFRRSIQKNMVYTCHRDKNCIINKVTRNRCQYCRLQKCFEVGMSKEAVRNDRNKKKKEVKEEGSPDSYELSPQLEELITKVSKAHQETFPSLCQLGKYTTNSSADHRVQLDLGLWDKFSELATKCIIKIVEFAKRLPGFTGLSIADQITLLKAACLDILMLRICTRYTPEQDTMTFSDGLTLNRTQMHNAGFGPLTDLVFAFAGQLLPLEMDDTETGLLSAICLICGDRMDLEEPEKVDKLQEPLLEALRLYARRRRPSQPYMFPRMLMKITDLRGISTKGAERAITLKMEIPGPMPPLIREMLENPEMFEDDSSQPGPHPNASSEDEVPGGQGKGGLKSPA
Description: (§3) For active retinoids, IC50 values were determined by titration with varying concentrations of UAB retinoids.

RARα [4] = target: T1, RARα; assay: nuclear receptor radiolabeled competition binding, RARα
Description: as §3

RARγ [5] = target: T2, RARγ; assay: RARγ-mediated transcriptional activation in CV-1 cells; assay type: cell-based
Description: as §1, §2

RXRα = RXRα (Homo sapiens, UniProt P19793); assay: nuclear receptor radiolabeled competition binding, RXRα
Description: as §3

RXRα, sequence (P19793 whole entry): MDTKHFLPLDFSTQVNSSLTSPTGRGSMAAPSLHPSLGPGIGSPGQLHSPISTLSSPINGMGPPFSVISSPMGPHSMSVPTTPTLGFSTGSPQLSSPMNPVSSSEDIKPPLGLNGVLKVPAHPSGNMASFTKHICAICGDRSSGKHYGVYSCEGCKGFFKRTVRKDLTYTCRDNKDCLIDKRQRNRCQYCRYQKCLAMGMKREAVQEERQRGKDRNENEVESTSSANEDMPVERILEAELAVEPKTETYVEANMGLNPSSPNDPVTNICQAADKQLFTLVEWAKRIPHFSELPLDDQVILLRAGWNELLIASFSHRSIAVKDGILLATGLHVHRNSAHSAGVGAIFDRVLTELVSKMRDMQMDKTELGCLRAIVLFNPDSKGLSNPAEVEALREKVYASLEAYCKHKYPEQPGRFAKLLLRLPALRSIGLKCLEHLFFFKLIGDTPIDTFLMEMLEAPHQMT

In the case of `CCC1=C(C(C)C)/C(=C/C(C)=C/C=C/C(C)=C/C(=O)O)CCC1` [(all-E)-UAB8], the “metabolism / metabolic stability” value (NB4 cells) is listed as “metabolized at the same rate as ATRA”, the EC50 (RARα [1]) is listed as 33 nM and the “in vivo toxicity” value [2] is listed as “less toxic than ATRA”. The inhibition at 1 µM (JMML cells; read-out: normalized percent inhibition of CFU-GM colony growth, patient J43 (%)) was 98%, the inhibition at 1 µM (JMML cells; read-out: normalized percent inhibition of CFU-GM colony growth, patient J84 (%)) was 103% and the EC50 (HL-60 cells) was > 10000 nM. The IC50 (RARγ [3]) was 10 nM, the IC50 (RARα [4]) was 14 nM and the EC50 (RARγ [5]) was 2 nM. For the same compound, the IC50 (RXRα) was > 2000 nM.

Reference: patent US6172112A, “Retinoids and use thereof” (priority 1999, dated 2001)
